# Test results: paper PMC5706701, “Development of a homogenous high-throughput assay for inositol hexakisphosphate kinase 1 activity” (PLoS ONE, 2017)
# Where a name gives a salt, the structure may show the parent alone.
# Molecular target: T1, Human IP6K1 (Homo sapiens, UniProt Q92551)
# T1 construct: GST (N, cleaved yes); made in house; host or cells: C43 E. coli, pGEX-6P-2
# Assay: IP6K1 high-throughput screen of the Sigma LOPAC (ADP-Glo Max, single point);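 also: final compound concentration 10µM in 5% DMSO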
# Assay type: biochemical
# [1] = LOPAC single-point screen, ADP-Glo Max raw signal per well
# [2] = LOPAC single-point screen, Z-score against plate average and StDev
# [3] = LOPAC single-point screen, ADP-Glo Max luminescence raw signal per well
# [4] = LOPAC single-point screen, Z-score relative to plate average and StDev
# [5] = LOPAC single-point screen, Z-score from plate average and StDev
# [6] = LOPAC single-point screen, Z-score from raw signal with plate average and StDev
# [7] = Sigma LOPAC single-point screen, ADP-Glo Max raw signal per well
# [8] = Sigma LOPAC single-point screen, Z-score from plate average and StDev
# T1 sequence (Q92551 whole entry): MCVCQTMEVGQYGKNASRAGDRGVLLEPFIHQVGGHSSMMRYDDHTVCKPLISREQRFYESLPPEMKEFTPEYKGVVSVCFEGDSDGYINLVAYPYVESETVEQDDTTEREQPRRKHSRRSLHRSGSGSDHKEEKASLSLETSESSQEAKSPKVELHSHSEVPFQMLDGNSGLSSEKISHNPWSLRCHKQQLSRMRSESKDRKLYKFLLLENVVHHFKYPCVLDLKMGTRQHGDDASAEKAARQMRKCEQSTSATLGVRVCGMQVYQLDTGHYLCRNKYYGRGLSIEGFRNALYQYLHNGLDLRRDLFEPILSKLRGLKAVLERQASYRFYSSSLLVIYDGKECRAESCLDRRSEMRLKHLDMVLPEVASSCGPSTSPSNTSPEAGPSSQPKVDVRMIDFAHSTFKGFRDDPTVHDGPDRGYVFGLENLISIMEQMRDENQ
compound,measurement,setting,value
S=C=Nc1ccc2oc(C3=NCCN3)cc2c1 [BU99006],Raw Signal,[1],56328
same,Z-score,[2],0.2358
CC(=O)NCCc1c[nH]c2ccc(O)cc12 [N-Acetyl-5-hydroxytryptamine],Raw Signal,[3],55051
same,Z-score,[4],-0.5041
"LY-367,265",Raw Signal,[3],62501
same,Z-score,[5],1.362
Oc1ncnc2[nH]ncc12 [Allopurinol],Raw Signal,[1],56130
same,Z-score,[6],-0.3141
CC(C)OC(=O)C(C)(C)Oc1ccc(C(=O)c2ccc(Cl)cc2)cc1 [Fenofibrate],Raw Signal,[3],61843
same,Z-score,[5],1.356
COC(=O)[C@@H](N)CCCN=C(N)N[N+](=O)[O-].Cl,Raw Signal,[7],58464
same,Z-score,[8],0.6839
CC(=O)OC(C)C[N+](C)(C)C.[Cl-] (stereo not drawn) [Acetyl-beta-methylcholine chloride],Raw Signal,[3],54689
same,Z-score,[4],-0.5679
C=CCn1c(=O)c2c(nc(-c3ccc(S(=O)(=O)O)cc3)n2C)n(C)c1=O,Raw Signal,[7],65523
same,Z-score,[8],1.34
"O.c1cnc2c(c1)ccc1cccnc12 [1,10-Phenanthroline monohydrate]",Raw Signal,[3],52659
same,Z-score,[4],-0.6537
Cc1cc(N)c2ccccc2[n+]1CCCCCCCCCC[n+]1c(C)cc(N)c2ccccc21 [Dequalinium dichloride],Raw Signal,[1],55705
same,Z-score,[2],0.1093
NC[C@H](O)c1ccc(O)c(O)c1.O=C(O)C(O)C(O)C(=O)O [L(-)-Norepinephrine bitartrate],Raw Signal,[3],29897
same,Z-score,[4],-4.934
CC#CCOC(=O)c1c(C)nc2sc3c(c2c1N)CCC(O)C3 (stereo not drawn) [SB 205384],Raw Signal,[7],57931
same,Z-score,[8],0.3705
O=C1CCC(c2ccc(-n3ccnc3)cc2)=NN1 [Imazodan],Raw Signal,[7],60009
same,Z-score,[8],0.9834
O=C(N[C@@H](Cc1ccccc1)C(=O)CCl)OCc1ccccc1 [Z-L-Phe chloromethyl ketone],Raw Signal,[1],56278
same,Z-score,[6],-0.288
Cl.Cn1ccc2cc(NC(=O)Nc3cccnc3)ccc21 [SB 200646 hydrochloride],Raw Signal,[1],55663
same,Z-score,[6],-0.3963
N#CC(C#N)=Cc1ccc(O)c(O)c1 [Tyrphostin 23],Raw Signal,[3],48444
same,Z-score,[4],-1.473
O=C([O-])c1cc2cc(Cc3cccnc3)ccc2o1.[Na+] [Furegrelate sodium],Raw Signal,[1],53193
same,Z-score,[6],-0.4009
O=C(O)c1cc[c]([Hg][Cl])cc1 [4-Chloromercuribenzoic acid],Raw Signal,[1],56908
same,Z-score,[6],-0.177
CN1CC[C@]2(CCN3CCc4c(oc5ccccc45)[C@@H]3C2)N(C)C1=O.Cl [MK-912],Raw Signal,[3],51307
same,Z-score,[4],-0.5186
Clc1ccc(C(c2ccccc2Cl)C(Cl)Cl)cc1 (stereo not drawn),Raw Signal,[1],59387
same,Z-score,[2],0.2596
CN(Cc1cnc2nc(N)nc(N)c2n1)c1ccc(C(=O)N[C@@H](CCC(=O)O)C(=O)O)cc1 [Methotrexate],Raw Signal,[7],60039
same,Z-score,[8],0.3744
CSc1ccc2c(c1)C(N1CCN(C)CC1)Cc1ccccc1S2 (stereo not drawn) [Methiothepin mesylate],Raw Signal,[7],58558
same,Z-score,[8],0.6997
CN(C)C(=O)Oc1ccc[n+](C)c1 [Pyridostigmine bromide],Raw Signal,[1],56672
same,Z-score,[2],0.1259
Cl.NNC(N)=O [Semicarbazide hydrochloride],Raw Signal,[1],55828
same,Z-score,[2],-0.03804
CC(=O)S[C@@H]1CC2=CC(=O)CC[C@]2(C)[C@H]2CC[C@@]3(C)[C@@H](CC[C@@]34CCC(=O)O4)[C@H]12 [Spironolactone],Raw Signal,[3],50910
same,Z-score,[4],-0.9935
NS(=O)(=O)c1cc2c(cc1Cl)N=CNS2(=O)=O [Chlorothiazide],Raw Signal,[3],49210
same,Z-score,[4],-1.533
Oc1ccc2c3c1O[C@H]1c4[nH]c5ccccc5c4C[C@@]4(O)[C@@H](C2)N(CC2CC2)CC[C@]314 [Naltrindole hydrochloride],Raw Signal,[1],53741
same,Z-score,[6],-0.1096
Cl.O[Si](CCCN1CCCCC1)(c1ccc(F)cc1)C1CCCCC1 (stereo not drawn),Raw Signal,[1],52920
same,Z-score,[6],-0.4564
CC(C)COCC(CN(Cc1ccccc1)c1ccccc1)N1CCCC1 (stereo not drawn) [Bepridil hydrochloride],Raw Signal,[7],60020
same,Z-score,[8],0.3711
CC(C(=O)O)c1cccc(C(=O)c2ccccc2)c1 (stereo not drawn) [Ketoprofen],Raw Signal,[1],53403
same,Z-score,[6],-0.1664
SKF 83565 hydrobromide,Raw Signal,[7],61448
same,Z-score,[8],1.054
CNC[C@H](O)c1cccc(O)c1 [Phenylephrine hydrochloride],Raw Signal,[1],56055
same,Z-score,[2],0.2792
Nc1ccc(CCN2CCN(c3cccc(C(F)(F)F)c3)CC2)cc1 [PAPP],Raw Signal,[1],56132
same,Z-score,[2],0.02102
